Results: the Deep4Chem optical property database
Blank lines part the entries; values can stand above or below the compound they belong to.

Test: solvent given as SMILES

emission maximum (in ClC(Cl)Cl): 434 nm
Compound: Cc1ccccc1C1CC(=O)Oc2c1c1nc3ccccc3nc1c1ccccc21 (stereo unspecified)

emission maximum (in CO): 548 nm
Compound: Cc1cc(C)c(B(c2cc(-c3ccc(C(F)(F)F)cc3)sc2-c2sc(-c3ccc(C(F)(F)F)cc3)cc2P(=O)(c2ccccc2)c2ccccc2)c2c(C)cc(C)cc2C)c(C)c1

emission maximum (in c1ccccc1): 465 nm
Compound: O=c1oc2ccc3ccccc3c2nc1-c1ccc(Cl)cc1

emission maximum (in ClCCl): 559 nm
Compound: Clc1nnc(Oc2ccc(N(c3ccc(Br)cc3)c3ccc(Br)cc3)cc2)nn1

emission maximum (in CCO): 642 nm | emission maximum (in CS(C)=O): 649 nm | emission maximum (in O): 620 nm
Compound: CC1(C)C(/C=C/c2cc3ccc(O)cc3oc2=O)=[N+](CCCS(=O)(=O)[O-])c2ccccc21

emission maximum (in C1CCOC1): 480 nm | emission maximum (in C1COCCO1): 480 nm | emission maximum (in CC#N): 488 nm | emission maximum (in CCCCCCC): 455 nm | emission maximum (in CCO): 490 nm | emission maximum (in O): 495 nm | emission maximum (in OCC(O)CO): 492 nm | emission maximum (in OCCO): 495 nm
Compound: CCOC(=O)C1CC(c2c(C#N)c(C)nn2-c2ccccc2)=CN1c1ccc(Br)cc1 (stereo unspecified)

emission maximum (in ClC(Cl)Cl): 395 nm
Compound: c1cc2c3cscc3c3ccsc3c2s1

emission maximum (in C1CCOC1): 527 nm
Compound: N#Cc1c(N2CCCC2)cc(-c2ccccc2)c2c1-c1ccccc1C2=O

emission maximum (in ClC(Cl)Cl): 482 nm
Compound: c1ccc(-c2nc(-c3ccccn3)sc2N(c2ccccc2)c2ccccc2)cc1

emission maximum (in CC#N): 415 nm | emission maximum (in CCO): 416 nm | emission maximum (in O): 409 nm
Compound: CC(=O)OC[C@@H]1O[C@H](n2cnc3c2N=CN2Cc4c[n+](C)c(C)nc4N=C32)[C@@H](O)[C@H]1O

Compound: c1ccc2c(c1)c1ccccc1n2-c1ccc2cc(-c3ccc(-c4ccc(-c5cc6ccc(-n7c8ccccc8c8ccccc87)cc6o5)cc4)cc3)oc2c1
emission maximum (in Cc1ccccc1): 419 nm | emission maximum (in c1ccc2c(c1)c1ccccc1n2-c1ccc(-c2ccc(-n3c4ccccc4c4ccccc43)cc2)cc1): 441 nm

emission maximum (in CC#N): 385 nm | emission maximum (in CCCCCC): 361 nm | emission maximum (in CO): 392 nm | emission maximum (in ClC(Cl)Cl): 372 nm
Compound: c1ccc2cc(-c3cc(-c4nccs4)nc(-c4nccs4)c3)ccc2c1

emission maximum (in C1COCCO1): 402 nm | emission maximum (in CC#N): 415 nm | emission maximum (in CO): 432 nm | emission maximum (in ClCCl): 409 nm
Compound: COC(=O)c1nc2c(N(C)C)nc(N(C)C)nc2n1Cc1ccccc1

emission maximum (in C1CCCCC1): 444 nm | emission maximum (in CC#N): 453 nm | emission maximum (in CO): 487 nm | emission maximum (in ClCCl): 477 nm | emission maximum (in O): 470 nm
Compound: N#Cc1ccc(-c2nc(-c3ccccc3)c3ccccn23)cc1

emission maximum (in CO): 653 nm | emission maximum (in ClC(Cl)Cl): 654 nm
Compound: CN1C(=CC2=C([O-])C(=CC3=[N+](C)c4ccc(Cl)cc4C3(C)C)C2=O)C(C)(C)c2cc(Cl)ccc21

Compound: CCc1c(C)[nH]c(C2=[N+]3C(=Cc4c(C)c(CC)c(C)n4[B-]3(F)F)c3ccccc32)c1C
emission maximum (in C1CCOC1): 644 nm | emission maximum (in CC#N): 643 nm | emission maximum (in CCCCCC): 641 nm | emission maximum (in CO): 642 nm | emission maximum (in Cc1ccccc1): 651 nm | emission maximum (in ClCCl): 650 nm

emission maximum (in ClCCl): 741 nm
Compound: CC(C)(C)c1cc(-c2c3cc(c(-c4cc(C(C)(C)C)cc(C(C)(C)C)c4)c4ccc([nH]4)c(-c4ccc(Br)cc4)c4nc(c(-c5ccc(Br)cc5)c5ccc2[nH]5)C=C4)N=C3)cc(C(C)(C)C)c1

Compound: CCCCCCc1ccc2c3c(ccc2c1)O[B-](F)(F)[N+](c1cc([N+]2=Cc4c(ccc5cc(CCCCCC)ccc45)O[B-]2(F)F)cc([N+]2=Cc4c(ccc5cc(CCCCCC)ccc45)O[B-]2(F)F)c1)=C3
emission maximum (in C1CCOC1): 490 nm | emission maximum (in CC#N): 495 nm | emission maximum (in Cc1ccccc1): 493 nm | emission maximum (in ClCCl): 495 nm

Compound: Cn1c(=O)c(/N=N/c2ccc(Nc3ccc([N+](=O)[O-])cc3S(=O)(=O)O)cc2)c(O)c2ccccc21
emission maximum (in C1CCOC1): 615 nm | emission maximum (in CC(C)=O): 617 nm | emission maximum (in CCOC(C)=O): 610 nm | emission maximum (in CO): 619 nm | emission maximum (in CS(C)=O): 622 nm | emission maximum (in Cc1ccccc1): 605 nm | emission maximum (in ClCCl): 617 nm | emission maximum (in O): 636 nm

Compound: Cc1cccc2[n+]1[B-](F)(F)n1c(c3cccc4cccc1c43)=N2
emission maximum (in C1CCOC1): 496 nm | emission maximum (in CC#N): 495 nm | emission maximum (in CCCCCC): 494 nm | emission maximum (in Cc1ccccc1): 498 nm | emission maximum (in ClCCl): 521 nm

emission maximum (in ClC(Cl)Cl): 702 nm
Compound: COc1ccc(-c2c(-c3ccc(C)cc3)c3n(c2-c2ccc(C)cc2)[B-](F)(F)[N+]2=C(c4ccc(C)cc4)C(/C=C/C(=O)OC4CC[C@@]5(C)C(=CC[C@H]6[C@@H]7CC[C@H]([C@H](C)CCCC(C)C)[C@@]7(C)CC[C@@H]65)C4)=C(c4ccc(C)cc4)C2=N3)cc1 (stereo partly specified)

emission maximum (in ClC(Cl)Cl): 587 nm
Compound: C(#Cc1ccncc1)C(C#Cc1ccncc1)=Cc1ccc(C=C(C#Cc2ccncc2)C#Cc2ccncc2)s1

emission maximum (in C1CCCCC1): 395 nm
Compound: CCCC1(CCC)c2cc(-c3ccc(C(C)(C)C)cc3)ccc2-c2ccc(-c3ccc4c(c3)C(CCC)(CCC)c3cc(-c5ccc(C(C)(C)C)cc5)ccc3-4)cc21

emission maximum (in CS(C)=O): 424 nm
Compound: Cn1c2ccc(S(=O)(=O)Cl)cc2c(=O)c2cc(S(=O)(=O)Cl)ccc21

emission maximum (in ClC(Cl)Cl): 556 nm
Compound: CC1=[N+]2C(=C(c3c4ccccc4cc4ccccc34)c3ccc(/C=C/C(C)(C)C)n3[B-]2(F)F)C=C1

Compound: Fc1c(F)c(F)c([B-]2(c3c(F)c(F)c(F)c(F)c3F)Oc3c(ccc4c5c(ccc34)C=[N+](c3ccccc3)[B-](c3c(F)c(F)c(F)c(F)c3F)(c3c(F)c(F)c(F)c(F)c3F)O5)C=[N+]2c2ccccc2)c(F)c1F
emission maximum (in C1CCOC1): 578 nm | emission maximum (in CC#N): 577 nm | emission maximum (in CC(C)=O): 578 nm | emission maximum (in Cc1ccccc1): 580 nm | emission maximum (in ClCCl): 580 nm

emission maximum (in C1CCOC1): 292.44 nm | emission maximum (in CCO): 292.99 nm | emission maximum (in CO): 292.44 nm | emission maximum (in O): 293.54 nm | emission maximum (in O=CO): 294.16 nm
Compound: N#Cc1ccc(C[C@H](N)C(=O)O)cc1

emission maximum (in ClCCl): 631 nm
Compound: O=[N+]([O-])c1ccc2c(ccc3[n+]2[B-](F)(F)n2c-3cc3c4ccccc4c4ccccc4c32)c1

Compound: c1ccc(-c2nnc(-c3ccc(-n4c5ccccc5c5ccccc54)cc3)o2)cc1
emission maximum (in CCO): 440 nm | emission maximum (in Cc1ccccc1): 387 nm

Compound: N#Cc1c(-n2c3ccccc3c3cc(Br)ccc32)c(C#N)c(-n2c3ccccc3c3cc(Br)ccc32)c(-n2c3ccccc3c3cc(Br)ccc32)c1-n1c2ccccc2c2cc(Br)ccc21
emission maximum (in Cc1ccccc1): 515 nm

emission maximum (in ClCCl): 450 nm
Compound: CC(=O)c1c(N[C@@H](Cc2ccccc2)C(=O)O)c2ccc(N(C)C)cc2oc1=O

emission maximum (in ClCCl): 577 nm
Compound: CC(=O)c1ccc(C#Cc2ccc3c(N(C)C)cc(-c4ccccc4)cc3c2)cc1

emission maximum (in C1CCCCC1): 387 nm | emission maximum (in C1COCCO1): 397 nm | emission maximum (in CC#N): 413 nm | emission maximum (in CC(C)(C)O): 400 nm | emission maximum (in CC(C)O): 403 nm | emission maximum (in CCCCCC): 387 nm | emission maximum (in CCCCO): 401 nm | emission maximum (in CCOC(C)=O): 395 nm | emission maximum (in CN(C)C=O): 417 nm | emission maximum (in CO): 399 nm | emission maximum (in ClCCl): 418 nm | emission maximum (in O): 409 nm
Compound: Cc1ccc(C(=O)/C=C2\C(=O)Nc3ccccc32)cc1C

Compound: C=Cc1ccc(-c2ccc(-c3nnc(-c4ccc(-c5nnc(-c6ccc(-c7ccc(C=C)cc7)s6)o5)cc4)o3)s2)cc1
emission maximum (in C1COCCO1): 397 nm | emission maximum (in CC#N): 400 nm | emission maximum (in CC(=O)N(C)C): 407 nm | emission maximum (in CCCCCCCCCCO): 399 nm | emission maximum (in CCCCCCCCO): 400 nm | emission maximum (in CCCCCCO): 399 nm | emission maximum (in CCCCO): 400 nm | emission maximum (in CCO): 400 nm | emission maximum (in CS(C)=O): 423 nm | emission maximum (in Cc1ccccc1): 399 nm | emission maximum (in ClC(Cl)Cl): 398 nm
